# Assays:
# [1] = literature (Ongini et al.); cited from earlier work
# CD1 male mice [2] = experiment: Capacity of the products to induce catalepsy in mice; type: in vivo; conditions: 60 mg/kg, endoperitoneal, 30 minutes prior to the test
# Description: 10 CD1 male mice were used per group. For this test, a steel bar, 10 cm long, was placed at a height of 4.5 cm above the support surface. Onto this, were placed the front legs of the animals. The presence of catalepsy was determined by measuring the time (in seconds) the animal remained in the posture placed. Later, this parameter was placed relatively, on a scale of rising values (0 to 5) through which, the degree of catalepsy determined in both control animals and in these subjected to treatment with the substances under test could be proportionately expressed.
# The reference products and these in this study were administered endoperitoneally, in a volume of 10 ml/kg, 30 minutes prior to the test.
# Except for CGS 21680 (reference compound) which was dissolved in 0.9% NaCl, the products in the study and the control antagonist ZM 241385 were solubilised in DMSO and then diluted in Cremofor EL and 0.9% NaCl (final concentrations: DMSO 15%, Cremofor EL 15%, NaCl 0.9%).
# [3] = El Yacoubi M; et al Eur. J. Pharm. 401 (2000) 63-77; cited from earlier work
# CD1 male mice [4] = experiment: Effects on spontaneous motor activity in mice; type: in vivo; conditions: mean ± s.e.
# Description: For this study, type CD1 male mice (n=8) were used. The effects of the products under study and of the reference compounds were evaluated using an apparatus consisting of a Plexiglas cage (40 cm×40 cm) surrounded by a series of photocells which monitor the movements of the animals placed inside, connected a computerised system, through which, the signals are collected and later elaborated.
# Tests were carried out, after endoperitoneal administration of the products. 15 minutes after treatment, the treated animals, alternating with the controls, were placed inside the cage so as to record their spontaneous movements over a total period of 45 minutes broken down into two observation intervals (15′-45′ and 45′-60′, with respect to the time after treatment).
# To examine the possible effects of the compounds studied on motor activity, the following parameters were considered: horizontal activity, vertical activity: total distance.
# Except for CGS 21680 (reference compound, described in EP 0 277 917, Ciba-Geigy) which was dissolved in 0.9% NaCl, the products studied were solubilised in DMSO and then diluted in Cremofor EL and 0.9% NaCl (final concentrations: DMSO 15%, Cremofor EL 15%, NaCl 0.9%.
# [5] = 15 mg/kg endoperitoneal, interval 15′-45′ from treatment
# [6] = 15 mg/kg endoperitoneal, interval 45′-60′ from treatment
# [7] = 30 mg/kg endoperitoneal, interval 15′-45′ from treatment
# [8] = 30 mg/kg endoperitoneal, interval 45′-60′ from treatment
# [9] = 60 mg/kg endoperitoneal, interval 15′-45′ from treatment
# [10] = 60 mg/kg endoperitoneal, interval 45′-60′ from treatment
structure (smiles),measurement,setting,value
CCn1c(=O)c2c(nc(/C=C/c3ccc(OC)c(OC)c3)n2C)n(CC)c1=O [KW-6002],photoisomerisation of the ethylenic bond (stability),[1],subject to loss of activity through photoisomerisation of the ethylenic bond
"Nc1nc(NCCc2ccc(O)cc2)nc2nc(-c3ccco3)nn12 [ZM 241385, reference compound]",appearance of catalepsy in mice (FIG. 1),CD1 male mice [2],"none of them brought about the appearance of catalepsy in mice, analogous to the reference antagonist"
same,bioavailability in vivo,[3],very low bioavailability
same,Horizontal activity,CD1 male mice [4]; [5],8706 ± 473
same,Total distance,CD1 male mice [4]; [5],2280 ± 242
same,Vertical activity,CD1 male mice [4]; [5],680 ± 64
same,Horizontal activity,CD1 male mice [4]; [6],4148 ± 241
same,Total distance,CD1 male mice [4]; [6],1022 ± 130
same,Vertical activity,CD1 male mice [4]; [6],362 ± 78
same,Horizontal activity,CD1 male mice [4]; [7],7035 ± 709
same,Total distance,CD1 male mice [4]; [7],1725 ± 186
same,Vertical activity,CD1 male mice [4]; [7],613 ± 102
same,Horizontal activity,CD1 male mice [4]; [8],3505 ± 375
same,Total distance,CD1 male mice [4]; [8],783 ± 165
same,Vertical activity,CD1 male mice [4]; [8],282 ± 37
same,Horizontal activity,CD1 male mice [4]; [9],7790 ± 980
same,Total distance,CD1 male mice [4]; [9],2250 ± 401
same,Vertical activity,CD1 male mice [4]; [9],570 ± 129
same,Horizontal activity,CD1 male mice [4]; [10],4241 ± 407
same,Total distance,CD1 male mice [4]; [10],1131 ± 158
same,Vertical activity,CD1 male mice [4]; [10],264 ± 56

# From patent US7528252B2, “Derivatives of triazoly-imidazopyridine useful as ligands of the adenosine A2a receptor and their use as medicaments” (Sigma-Tau Industrie Farmaceutiche Riunite S.p.A., priority 2002, dated 2009)
